Results as given in US20060111305A1, “Metabolites of certain [1,4]diazepino[6,7,1-ij]quinoline derivatives and methods of preparation and use thereof” (Wyeth, priority 2004, published 2006).
Several values for one entry are separate records, joined by “and”; a condition that tells them apart may be missing. Equal entries are not always repeated. Where two headings read alike, the source gives them in different places.

Test: Concentrations of DCDQ and DCDQ carbamoyl glucuronide (M6) in human plasma, LC/SRM (Table 34)
Type: in vivo, healthy human subjects
Settings: for concentration at 6 h / concentration at 12 h / concentration at 24 h: human, oral, read-out: M6 concentration in plasma; for concentration at 6 h / concentration at 12 h / concentration at 24 h / M6 to DCDQ Ratios / M6 concentration in plasma: plasma
Experimental: Drug administration and specimen collection were performed in a randomized, double-blinded, placebo-controlled, ascending single dose study of the safety, tolerability, pharmacokinetics, and pharmacodynamics of DCDQ administered orally to healthy subjects and subjects with schizophrenia and schizoaffective disorder. The specimens were stored at approximately −70° C. until analysis for metabolite profiles and for ratios of carbamoyl glucuronide (M6) to DCDQ.
Plasma samples from fasted subjects 25, 28 and 30 in the 50 mg single dose group, fasted subjects 50, 51, 54 in the 200 mg single dose group, fasted subjects 74, 76, 79 in the 300 mg single dose group, fed subjects 83, 84, 86 in the 300 mg single dose group and fasted subjects 92, 94, 96 in the 500 mg single dose group were analyzed for DCDQ carbamoyl glucuronide (M6) concentrations. The internal standard d8-DCDQ (25 μL of 200 ng/mL methanol solution) was added to 100 μL of the plasma samples, followed by the addition of 300 μL of acetonitrile. The samples were mixed and centrifuged at 14000 rpm in an Eppendorf 5415C centrifuge (Brinkman Instruments Inc., Westbury, N.Y.) for 10 minutes. The supernatant of each sample was transferred to a clean tube and evaporated to dryness under a stream of nitrogen in a TurboVap LV evaporator (Caliper Life Sciences, Hopkinton, Mass.). The residue was reconstituted with 50 μL of methanol followed by the addition of 150 μL of water. The sample was mixed and centrifuged as described above. The supernatant was analyzed by LC/MS/MS analysis. Samples for standard curves were prepared with control plasma spiked with synthetic M6. The concentrations of M6 used for the standard curve ranged from 0 to 2500 ng/mL plasma.
LC/MS System 3 was used for semi-quantitative analysis of metabolite M6 (DCDQ carbamoyl glucuronide) in plasma and urine samples. The HPLC equipment for this LC/MS System consisted of a Thermo Surveyor HPLC (Thermo Electron Corp., San Jose, Calif.), including a Surveyor MS pump and autosampler. Separations were accomplished on a 5 micron Phenomenex Luna C18(2) column, 150×2 mm (Phenomenex, Torrance, Calif.). The autosampler and column temperatures were set at 5° C. and 40° C., respectively. The HPLC mobile phase consisted of 10 mM ammonium acetate (A) and methanol (B), and was delivered at 0.2 mL/min. The linear mobile phase gradient (HPLC Gradient 2) is shown below. During LC/MS sample analysis, up to 3 min of the initial flow was diverted away from the mass spectrometer prior to evaluation of metabolites.
The mass spectrometer used for semi-quantitative anslysis with LC/MS System 3 was a Finnigan TSQ Quantum triple quadrupole mass spectrometer (Thermo Electron Corp.). The mass spectrometer was equipped with an electrospray interface and operated in the positive ionization mode. Settings for this mass spectrometer are listed below.
LC/MS/MS analysis in the selected reaction monitoring (SRM) mode (LC/SRM) was conducted for DCDQ and M6 using the following settings.
The computer program Microsoft Excel® 97 was used to calculate means and standard deviations and to perform the student t-test. Xcalibur (version 1.3) and MassLynx software (version 4.0) were used for collection and analysis of LC/MS data. Peak area ratios of M6 to the internal standard were used for quantitation of M6 in plasma samples.

[1] = 50 mg (fasted), 6 hr, individual subjects
[2] = 50 mg (fasted), 12 hr, individual subjects
[3] = 50 mg (fasted), 24 hr, individual subjects
[4] = 200 mg (fasted), 6 hr, individual subjects
[5] = 200 mg (fasted), 12 hr, individual subjects
[6] = 200 mg (fasted), 24 hr, individual subjects
[7] = 300 mg (fasted), 6 hr, individual subjects
[8] = 300 mg (fasted), 12 hr, individual subjects
[9] = 300 mg (fasted), 24 hr, individual subjects
[10] = 300 mg (fed), 6 hr, individual subjects
[11] = 300 mg (fed), 12 hr, individual subjects

differences in M6 concentrations and M6 to DCDQ ratios between fasted and fed subjects (300 mg of DCDQ): no statistically significant differences
concentration at 6 h (50 mg, 50 mg (fasted), 6 hr, Mean ± S.D.): 0.114 ± 0.0269 µg/mL
concentration at 6 h (50 mg, 50 mg (fasted), 6 hr, individual subjects): 0.127 µg/mL
concentration at 12 h (50 mg, 50 mg (fasted), 12 hr, Mean ± S.D.): 0.0124 ± 0.005 µg/mL
concentration at 24 h (50 mg, 50 mg (fasted), 24 hr, Mean (standard deviation not calculated)): 0.00335 µg/mL
concentration at 24 h (50 mg, 50 mg (fasted), 24 hr, individual subjects): 0.0031 µg/mL
concentration at 6 h (200 mg, 200 mg (fasted), 6 hr, Mean ± S.D.): 0.352 ± 0.228 µg/mL
concentration at 12 h (200 mg, 200 mg (fasted), 12 hr, Mean ± S.D.): 0.0436 ± 0.0171 µg/mL
concentration at 24 h (200 mg, 200 mg (fasted), 24 hr, Mean ± S.D.): 0.00767 ± 0.0025 µg/mL
concentration at 24 h (200 mg, 200 mg (fasted), 24 hr, individual subjects): 0.0048 µg/mL
concentration at 6 h (300 mg, 300 mg (fasted), 6 hr, Mean ± S.D.): 0.237 ± 0.108 µg/mL
concentration at 12 h (300 mg, 300 mg (fasted), 12 hr, Mean ± S.D.): 0.0887 ± 0.0518 µg/mL
concentration at 24 h (300 mg, 300 mg (fasted), 24 hr, Mean ± S.D.): 0.0289 ± 0.0184 µg/mL
concentration at 6 h (300 mg, 300 mg (fed), 6 hr, Mean ± S.D.): 0.579 ± 0.354 µg/mL
concentration at 12 h (300 mg, 300 mg (fed), 12 hr, Mean ± S.D.): 0.286 ± 0.251 µg/mL
concentration at 24 h (300 mg, 300 mg (fed), 24 hr, Mean ± S.D.): 0.059 ± 0.0759 µg/mL
concentration at 6 h (500 mg, 500 mg (fasted), 6 hr, Mean ± S.D.): 1.02 ± 0.444 µg/mL
concentration at 12 h (500 mg, 500 mg (fasted), 12 hr, Mean ± S.D.): 0.178 ± 0.0301 µg/mL
concentration at 12 h (500 mg, 500 mg (fasted), 12 hr, individual subjects): 0.146 µg/mL
concentration at 24 h (500 mg, 500 mg (fasted), 24 hr, Mean ± S.D.): 0.0496 ± 0.0326 µg/mL
M6 to DCDQ Ratios (50 mg (fasted), 6 hr, Mean ± S.D.): 74.3 ± 59.6
M6 concentration in plasma [1]: 132 ng/mL and 83.1 ng/mL
M6 to DCDQ Ratios [1]: 141 and 26.4
M6 to DCDQ Ratios (50 mg (fasted), 12 hr, Mean ± S.D.): 14.8 ± 7.87
M6 concentration in plasma [2]: 15.1 ng/mL and 6.60 ng/mL and 15.4 ng/mL
M6 to DCDQ Ratios [2]: 21.6 and 16.5 and 6.16
M6 to DCDQ Ratios (50 mg (fasted), 24 hr, Mean (standard deviation not calculated)): 10.8
M6 concentration in plasma [3]: 3.6 ng/mL
M6 to DCDQ Ratios [3]: 15.5 and 6.00
M6 to DCDQ Ratios (200 mg (fasted), 6 hr, Mean ± S.D.): 45.2 ± 34.0
M6 concentration in plasma [4]: 225 ng/mL and 615 ng/mL and 216 ng/mL
M6 to DCDQ Ratios [4]: 83.3 and 34.2 and 18.0
M6 to DCDQ Ratios (200 mg (fasted), 12 hr, Mean ± S.D.): 14.3 ± 14.8
M6 concentration in plasma [5]: 37.5 ng/mL and 62.9 ng/mL and 30.3 ng/mL
M6 to DCDQ Ratios [5]: 31.3 and 6.84 and 4.73
M6 to DCDQ Ratios (200 mg (fasted), 24 hr, Mean ± S.D.): 8.42 ± 6.68
M6 concentration in plasma [6]: 8.8 ng/mL and 9.4 ng/mL
M6 to DCDQ Ratios [6]: 16.0 and 3.38 and 5.88
M6 to DCDQ Ratios (300 mg (fasted), 6 hr, Mean ± S.D.): 46.1 ± 21.6
M6 concentration in plasma [7]: 123 ng/mL and 249 ng/mL and 339 ng/mL
M6 to DCDQ Ratios [7]: 58.9 and 58.3 and 21.2
M6 to DCDQ Ratios (300 mg (fasted), 12 hr, Mean ± S.D.): 23.5 ± 5.10
M6 concentration in plasma [8]: 43.0 ng/mL and 78.0 ng/mL and 145 ng/mL
M6 to DCDQ Ratios [8]: 28.7 and 23.4 and 18.5
M6 to DCDQ Ratios (300 mg (fasted), 24 hr, Mean ± S.D.): 24.1 ± 22.7
M6 concentration in plasma [9]: 48.5 ng/mL and 12.0 ng/mL and 26.3 ng/mL
M6 to DCDQ Ratios [9]: 49.9 and 6.98 and 15.5
M6 to DCDQ Ratios (300 mg (fed), 6 hr, Mean ± S.D.): 76.6 ± 54.9
M6 concentration in plasma [10]: 860 ng/mL and 696 ng/mL and 182 ng/mL
M6 to DCDQ Ratios [10]: 45.3 and 44.6 and 140
M6 concentration in plasma [11]: 279 ng/mL and 38.1 ng/mL and 540 ng/mL
M6 to DCDQ Ratios [11]: 25.6 and 4.73
M6 concentration in plasma (300 mg (fed), 24 hr, individual subjects): 24.6 ng/mL and 6.40 ng/mL and 146 ng/mL
M6 concentration in plasma (500 mg (fasted), 6 hr, individual subjects): 1324 ng/mL and 508 ng/mL and 1221 ng/mL
M6 concentration in plasma (500 mg (fasted), 12 hr, individual subjects): 181 ng/mL and 206 ng/mL
M6 concentration in plasma (500 mg (fasted), 24 hr, individual subjects): 58.3 ng/mL and 13.5 ng/mL and 77.0 ng/mL
SMILES: O=C(O)[C@H]1O[C@@H](OC(=O)N2CCN3C[C@@H]4CCC[C@@H]4c4cccc(c43)C2)[C@H](O)[C@@H](O)[C@@H]1O [Metabolite M6, carbamoyl glucuronide of DCDQ]
